The source made the active and inactive calls.
How the values were obtained:
[1] = biological target: Voltage-dependent T-type calcium channel subunit alpha-1H (Homo sapiens, UniProt O95180); assay: inhibition of CACNA1H calcium flux – cell-based, SynthLib3 library, HEK293 Cav3.2, fluorescence (AID 493041); type: functional
[2] = biological target: T1, Replicative DNA helicase DnaB (Mycobacterium tuberculosis, UniProt P9WMR3); assay: DnaB intein splicing inhibitors, dose response, biochemical, cell-free fluorescence (AID 449749); type: functional
T1 sequence (P9WMR3 whole entry): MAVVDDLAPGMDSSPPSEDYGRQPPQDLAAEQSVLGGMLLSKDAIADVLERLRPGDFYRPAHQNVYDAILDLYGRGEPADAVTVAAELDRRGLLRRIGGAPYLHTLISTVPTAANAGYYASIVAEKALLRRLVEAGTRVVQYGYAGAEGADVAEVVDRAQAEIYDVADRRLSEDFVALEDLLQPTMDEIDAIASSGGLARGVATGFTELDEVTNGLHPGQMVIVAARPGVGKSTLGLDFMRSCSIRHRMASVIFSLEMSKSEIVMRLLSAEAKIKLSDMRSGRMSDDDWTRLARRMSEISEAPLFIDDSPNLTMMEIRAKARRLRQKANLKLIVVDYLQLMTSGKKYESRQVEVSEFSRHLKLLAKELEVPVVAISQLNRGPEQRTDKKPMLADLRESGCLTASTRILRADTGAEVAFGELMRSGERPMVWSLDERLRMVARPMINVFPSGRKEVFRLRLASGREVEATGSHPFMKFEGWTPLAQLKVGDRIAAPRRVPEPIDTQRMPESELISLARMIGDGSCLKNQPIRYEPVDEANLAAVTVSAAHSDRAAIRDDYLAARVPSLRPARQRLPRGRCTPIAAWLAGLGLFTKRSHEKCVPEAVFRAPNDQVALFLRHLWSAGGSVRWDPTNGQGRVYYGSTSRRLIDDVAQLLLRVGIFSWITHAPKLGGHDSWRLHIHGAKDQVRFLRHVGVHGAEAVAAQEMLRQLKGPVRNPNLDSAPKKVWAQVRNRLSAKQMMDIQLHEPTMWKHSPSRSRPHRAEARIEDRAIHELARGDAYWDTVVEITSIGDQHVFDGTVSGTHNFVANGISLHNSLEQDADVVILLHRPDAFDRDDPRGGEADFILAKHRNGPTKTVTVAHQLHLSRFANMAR

[3] = biological target: T2, G-protein coupled receptor 55 (Homo sapiens, UniProt Q9Y2T6); assay: blockers of GPR55 signalling, imaged – imaging, image-based, counter-screen for GPR35 antagonist project, SAR follow-up (AID 2397); type: functional
T2 sequence (Q9Y2T6 whole entry): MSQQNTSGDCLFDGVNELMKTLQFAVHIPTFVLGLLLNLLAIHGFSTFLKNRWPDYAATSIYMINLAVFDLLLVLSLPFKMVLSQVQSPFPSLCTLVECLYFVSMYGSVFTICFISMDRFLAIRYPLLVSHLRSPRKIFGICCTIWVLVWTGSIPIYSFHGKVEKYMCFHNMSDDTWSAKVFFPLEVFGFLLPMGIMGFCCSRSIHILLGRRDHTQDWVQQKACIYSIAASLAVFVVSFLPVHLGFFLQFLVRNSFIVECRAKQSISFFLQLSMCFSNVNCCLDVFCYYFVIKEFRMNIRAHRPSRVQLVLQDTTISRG

Protein RecA = biological target: T3, Protein RecA (Mycobacterium tuberculosis, UniProt P9WHJ3); assay: Fluorescence Cell-Free Homogeneous Dose Retest to Identify Inhibitors of RecA-Intein Splicing Activity. [Related pubchem assays (depositor defined):AID2097, AID2223, AID489010, AID492950]; type: functional
T3 sequence (P9WHJ3 whole entry): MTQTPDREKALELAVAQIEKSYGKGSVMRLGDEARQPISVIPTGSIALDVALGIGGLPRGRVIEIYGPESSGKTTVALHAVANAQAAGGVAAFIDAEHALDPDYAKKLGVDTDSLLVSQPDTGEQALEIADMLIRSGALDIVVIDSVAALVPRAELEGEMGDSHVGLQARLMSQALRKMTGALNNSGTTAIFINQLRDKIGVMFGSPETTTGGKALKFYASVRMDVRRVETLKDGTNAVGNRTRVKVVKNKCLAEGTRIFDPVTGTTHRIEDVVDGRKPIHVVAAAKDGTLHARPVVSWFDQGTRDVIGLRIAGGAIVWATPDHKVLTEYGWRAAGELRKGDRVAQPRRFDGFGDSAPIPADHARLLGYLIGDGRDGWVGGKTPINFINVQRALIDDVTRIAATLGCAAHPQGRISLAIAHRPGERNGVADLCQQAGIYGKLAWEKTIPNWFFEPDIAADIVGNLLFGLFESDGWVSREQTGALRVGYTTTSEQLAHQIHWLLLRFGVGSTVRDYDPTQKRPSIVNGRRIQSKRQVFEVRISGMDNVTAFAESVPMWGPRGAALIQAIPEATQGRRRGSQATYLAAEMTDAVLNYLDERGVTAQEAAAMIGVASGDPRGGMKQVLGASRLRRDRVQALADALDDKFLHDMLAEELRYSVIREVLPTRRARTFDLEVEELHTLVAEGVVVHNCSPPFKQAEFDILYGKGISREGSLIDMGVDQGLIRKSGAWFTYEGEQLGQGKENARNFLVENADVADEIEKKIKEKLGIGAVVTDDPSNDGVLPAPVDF

Vero = assay: mammalian cell viability reduction – secondary assay, cytotoxicity control for West Nile virus antiviral project, dose response (AID 1650); type: functional; conditions: Chlorocebus sabaeus
[4] = A549 cell cytotoxicity, dose response, cytotoxicity control, plate reader, cherry-pick, antagonist series (AID 743412); type: functional, cell-based
[5] = toxicity toward HepG2 liver cells – cell-based, plate reader, cherry-pick, antagonist series, cytotoxicity control, dose response (AID 743416); type: functional
[6] = (§1) Late stage assay provider results from the probe development effort to identify inhibitors of Protein Phosphatase Methylesterase 1 (PME-1): luminescence-based […] dose response assay to determine cytotoxicity of inhibitor compounds. [Related pubchem assays (depositor defined):AID2130, AID2143, AID2171, AID2174, AID2177, AID2232, AID2233, AID2291, AID2363, AID2365, AID2366, AID2368, AID2369, AID2371, AID463124, AID463130, AID463131, AID463132, AID463146, AID463149] Panel member name: Serum-free Media; type: toxicity
[7] = blockers of bursicon-stimulated LGR2 cAMP reporter – cell-based, HEK293, CRE-luciferase reporter, cherry pick, set 2, dose response (AID 743343); type: functional;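 note: transfected cells were stimulated with diluted bursicon conditioned medium after compound addition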
[8] = viability loss in HEK293 cells – cell-based, plate reader, cherry-picked samples, cytotoxicity control, dose response (AID 743446); type: functional
[9] = as §1, with “Fetal Calf Serum” for “Serum-free Media”; type: toxicity
[10] = blockade of melanocortin 4 receptor signaling – cell-based, plate reader, cherry pick, counter-screen for LGR2 antagonist project, dose response (AID 743444); type: functional;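 note: transfected HEK 293 cells stimulated with alpha-MSH peptide; potency of inhibitors of the alpha-MSH evoked signal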
[11] = Luminescence Cell-Based Dose Retest to Confirm Inhibitors of Cancer Stem Cells. [Related pubchem assays (depositor defined):AID2717, AID2721]; type: functional; conditions: Homo sapiens
[12] = biological target: T2, G-protein coupled receptor 55; assay: SAR analysis of selective Agonists of GPR55 using an Image-Based Assay. [Related pubchem assays (depositor defined):AID1961, AID1965]; type: functional
Cannabinoid receptor 1 = Cannabinoid receptor 1 (Homo sapiens, UniProt P21554); assay: SAR analysis of antagonists of the Cannabinoid Receptor 1 using an Image-Based Assay. [Related pubchem assays (depositor defined):AID1961, AID1965]; type: functional
Cannabinoid receptor 1, sequence (P21554 whole entry): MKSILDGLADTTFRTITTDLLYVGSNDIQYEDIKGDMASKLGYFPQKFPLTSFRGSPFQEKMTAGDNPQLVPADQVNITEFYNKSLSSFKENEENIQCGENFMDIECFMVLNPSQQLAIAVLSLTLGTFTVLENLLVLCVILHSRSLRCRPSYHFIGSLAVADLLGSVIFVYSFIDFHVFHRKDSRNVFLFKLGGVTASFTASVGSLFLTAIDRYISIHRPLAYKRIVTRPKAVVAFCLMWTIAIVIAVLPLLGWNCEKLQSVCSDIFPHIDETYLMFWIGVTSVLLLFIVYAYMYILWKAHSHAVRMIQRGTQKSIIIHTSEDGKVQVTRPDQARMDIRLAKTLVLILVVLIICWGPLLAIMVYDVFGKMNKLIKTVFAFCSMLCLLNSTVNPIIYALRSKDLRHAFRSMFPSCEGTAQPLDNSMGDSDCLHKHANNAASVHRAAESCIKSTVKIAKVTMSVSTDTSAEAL

[13] = biological target: T2, G-protein coupled receptor 55; assay: selective activators of receptor GPR55 – imaging, U2OS cells, beta-arrestin-GFP redistribution, primary screen (AID 1961); type: functional
Cannabinoid receptor 2 [14] = biological target: T4, Cannabinoid receptor 2 (Homo sapiens, UniProt P34972); assay: SAR analysis of antagonists of the Cannabinoid Receptor 2 using an Image-Based Assay - Set 2. [Related pubchem assays (depositor defined):AID1961, AID1965]; type: functional
T4 sequence (P34972 whole entry): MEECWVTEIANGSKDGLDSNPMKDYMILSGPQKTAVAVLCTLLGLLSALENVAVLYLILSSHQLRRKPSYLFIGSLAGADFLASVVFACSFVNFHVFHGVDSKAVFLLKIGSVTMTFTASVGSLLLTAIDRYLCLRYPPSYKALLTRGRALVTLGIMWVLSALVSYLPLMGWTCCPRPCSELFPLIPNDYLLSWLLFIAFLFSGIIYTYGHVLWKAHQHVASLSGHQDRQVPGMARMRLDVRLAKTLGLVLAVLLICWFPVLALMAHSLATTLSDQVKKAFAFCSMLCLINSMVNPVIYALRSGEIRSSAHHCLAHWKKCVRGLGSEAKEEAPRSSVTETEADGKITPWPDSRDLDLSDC

Cannabinoid receptor 2 [15] = biological target: T4, Cannabinoid receptor 2; assay: SAR analysis of agonists of the Cannabinoid Receptor 2 using an Image-Based Assay - Set 2. [Related pubchem assays (depositor defined):AID1961, AID1965]; type: functional
Tumor necrosis factor = Tumor necrosis factor (Homo sapiens, UniProt P01375); assay: analog potency on TNFa NF-kB signaling – cell-based, set 3, SAR follow-up (AID 2801); type: functional
Bcl-2-related protein A1 [16] = biological target: T5, Bcl-2-related protein A1 (Mus musculus, UniProt Q07440); assay: small-molecule antagonists of Bfl-1/BH3 interaction – biochemical, TR-FRET, mouse Bfl-1, confirmation (AID 621);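 note: TR-FRET binding of GST-Bfl-1 to FITC-labelled Bid peptide via terbium antibody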
T5 sequence (Q07440 whole entry): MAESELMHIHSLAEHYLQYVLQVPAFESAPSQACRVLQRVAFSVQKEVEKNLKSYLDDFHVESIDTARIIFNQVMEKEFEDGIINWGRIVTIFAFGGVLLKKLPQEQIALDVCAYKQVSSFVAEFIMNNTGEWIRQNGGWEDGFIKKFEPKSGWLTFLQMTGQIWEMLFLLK

[17] = biological target: Nucleotide-binding oligomerization domain-containing protein 2 (Homo sapiens, UniProt Q9HC29); assay: inhibition of MDP-driven NOD2 NF-kB reporter – cell-based, set 3, SAR follow-up (AID 2799); type: functional
Nucleotide-binding oligomerization domain-containing protein 2, sequence (Q9HC29 whole entry, the tested form may be a part): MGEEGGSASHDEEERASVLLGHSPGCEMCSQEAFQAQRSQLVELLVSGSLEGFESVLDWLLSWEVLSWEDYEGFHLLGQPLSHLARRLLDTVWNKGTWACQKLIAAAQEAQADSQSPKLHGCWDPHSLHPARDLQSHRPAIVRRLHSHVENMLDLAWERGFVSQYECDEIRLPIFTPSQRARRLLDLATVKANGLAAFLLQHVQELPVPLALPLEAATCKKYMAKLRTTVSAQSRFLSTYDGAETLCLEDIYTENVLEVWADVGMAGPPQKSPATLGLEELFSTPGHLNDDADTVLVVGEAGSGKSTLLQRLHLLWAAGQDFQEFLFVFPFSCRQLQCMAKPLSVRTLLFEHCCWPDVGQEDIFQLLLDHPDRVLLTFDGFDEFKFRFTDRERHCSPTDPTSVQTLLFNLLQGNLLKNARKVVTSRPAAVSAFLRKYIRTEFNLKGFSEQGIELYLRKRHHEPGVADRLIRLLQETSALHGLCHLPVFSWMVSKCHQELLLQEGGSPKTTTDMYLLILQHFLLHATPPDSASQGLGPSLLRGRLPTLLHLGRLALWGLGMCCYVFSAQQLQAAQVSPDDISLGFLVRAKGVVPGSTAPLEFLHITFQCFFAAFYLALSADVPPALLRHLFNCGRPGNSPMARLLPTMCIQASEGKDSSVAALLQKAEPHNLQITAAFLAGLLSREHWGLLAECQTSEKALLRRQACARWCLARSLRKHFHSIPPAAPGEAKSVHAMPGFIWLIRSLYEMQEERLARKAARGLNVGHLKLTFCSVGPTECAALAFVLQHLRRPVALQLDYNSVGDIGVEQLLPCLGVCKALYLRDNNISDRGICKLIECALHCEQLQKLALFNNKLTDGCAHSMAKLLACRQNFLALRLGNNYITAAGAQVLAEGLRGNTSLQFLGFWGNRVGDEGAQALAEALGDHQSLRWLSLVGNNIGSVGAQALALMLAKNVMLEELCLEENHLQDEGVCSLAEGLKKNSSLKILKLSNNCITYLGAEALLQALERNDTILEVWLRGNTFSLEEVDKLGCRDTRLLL

Bcl-2-related protein A1 [18] = biological target: T5, Bcl-2-related protein A1; assay: Bfl-1 binding inhibitors, SAR follow-up, biochemical, fluorescence polarization (AID 1070)
[19] = biological target: Glyceraldehyde-3-phosphate dehydrogenase (Homo sapiens, UniProt P04406)
Glyceraldehyde-3-phosphate dehydrogenase, sequence (P04406 whole entry, the tested form may be a part): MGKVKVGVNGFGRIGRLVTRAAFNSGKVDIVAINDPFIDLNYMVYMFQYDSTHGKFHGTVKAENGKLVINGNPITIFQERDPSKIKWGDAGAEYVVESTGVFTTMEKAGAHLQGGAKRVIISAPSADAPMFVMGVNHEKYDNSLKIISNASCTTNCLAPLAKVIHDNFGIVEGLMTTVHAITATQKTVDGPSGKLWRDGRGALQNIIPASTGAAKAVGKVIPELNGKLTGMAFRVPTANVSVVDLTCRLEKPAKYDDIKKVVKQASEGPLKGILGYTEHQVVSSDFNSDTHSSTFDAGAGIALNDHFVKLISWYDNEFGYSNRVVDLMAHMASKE

[20] = biological target: Nucleotide-binding oligomerization domain-containing protein 1 (Homo sapiens, UniProt Q9Y239); assay: SAR analysis of compounds that inhibit NOD1 - Set 3. [Related pubchem assays (depositor defined):AID1566, AID1575, AID1578, AID1849, AID1852, AID2333, AID2335, AID2466]; type: functional
HEK293 = assay: SAR analysis of compounds that are cytotoxic to HEK293 - Set 3. [Related pubchem assays (depositor defined):AID1575, AID1578, AID1848, AID1849, AID2001, AID2333, AID2334, AID2335, AID2337, AID2469]; type: functional, cell-based; conditions: Homo sapiens

Voltage-dependent T-type calcium channel subunit alpha-1H, sequence (O95180 whole entry): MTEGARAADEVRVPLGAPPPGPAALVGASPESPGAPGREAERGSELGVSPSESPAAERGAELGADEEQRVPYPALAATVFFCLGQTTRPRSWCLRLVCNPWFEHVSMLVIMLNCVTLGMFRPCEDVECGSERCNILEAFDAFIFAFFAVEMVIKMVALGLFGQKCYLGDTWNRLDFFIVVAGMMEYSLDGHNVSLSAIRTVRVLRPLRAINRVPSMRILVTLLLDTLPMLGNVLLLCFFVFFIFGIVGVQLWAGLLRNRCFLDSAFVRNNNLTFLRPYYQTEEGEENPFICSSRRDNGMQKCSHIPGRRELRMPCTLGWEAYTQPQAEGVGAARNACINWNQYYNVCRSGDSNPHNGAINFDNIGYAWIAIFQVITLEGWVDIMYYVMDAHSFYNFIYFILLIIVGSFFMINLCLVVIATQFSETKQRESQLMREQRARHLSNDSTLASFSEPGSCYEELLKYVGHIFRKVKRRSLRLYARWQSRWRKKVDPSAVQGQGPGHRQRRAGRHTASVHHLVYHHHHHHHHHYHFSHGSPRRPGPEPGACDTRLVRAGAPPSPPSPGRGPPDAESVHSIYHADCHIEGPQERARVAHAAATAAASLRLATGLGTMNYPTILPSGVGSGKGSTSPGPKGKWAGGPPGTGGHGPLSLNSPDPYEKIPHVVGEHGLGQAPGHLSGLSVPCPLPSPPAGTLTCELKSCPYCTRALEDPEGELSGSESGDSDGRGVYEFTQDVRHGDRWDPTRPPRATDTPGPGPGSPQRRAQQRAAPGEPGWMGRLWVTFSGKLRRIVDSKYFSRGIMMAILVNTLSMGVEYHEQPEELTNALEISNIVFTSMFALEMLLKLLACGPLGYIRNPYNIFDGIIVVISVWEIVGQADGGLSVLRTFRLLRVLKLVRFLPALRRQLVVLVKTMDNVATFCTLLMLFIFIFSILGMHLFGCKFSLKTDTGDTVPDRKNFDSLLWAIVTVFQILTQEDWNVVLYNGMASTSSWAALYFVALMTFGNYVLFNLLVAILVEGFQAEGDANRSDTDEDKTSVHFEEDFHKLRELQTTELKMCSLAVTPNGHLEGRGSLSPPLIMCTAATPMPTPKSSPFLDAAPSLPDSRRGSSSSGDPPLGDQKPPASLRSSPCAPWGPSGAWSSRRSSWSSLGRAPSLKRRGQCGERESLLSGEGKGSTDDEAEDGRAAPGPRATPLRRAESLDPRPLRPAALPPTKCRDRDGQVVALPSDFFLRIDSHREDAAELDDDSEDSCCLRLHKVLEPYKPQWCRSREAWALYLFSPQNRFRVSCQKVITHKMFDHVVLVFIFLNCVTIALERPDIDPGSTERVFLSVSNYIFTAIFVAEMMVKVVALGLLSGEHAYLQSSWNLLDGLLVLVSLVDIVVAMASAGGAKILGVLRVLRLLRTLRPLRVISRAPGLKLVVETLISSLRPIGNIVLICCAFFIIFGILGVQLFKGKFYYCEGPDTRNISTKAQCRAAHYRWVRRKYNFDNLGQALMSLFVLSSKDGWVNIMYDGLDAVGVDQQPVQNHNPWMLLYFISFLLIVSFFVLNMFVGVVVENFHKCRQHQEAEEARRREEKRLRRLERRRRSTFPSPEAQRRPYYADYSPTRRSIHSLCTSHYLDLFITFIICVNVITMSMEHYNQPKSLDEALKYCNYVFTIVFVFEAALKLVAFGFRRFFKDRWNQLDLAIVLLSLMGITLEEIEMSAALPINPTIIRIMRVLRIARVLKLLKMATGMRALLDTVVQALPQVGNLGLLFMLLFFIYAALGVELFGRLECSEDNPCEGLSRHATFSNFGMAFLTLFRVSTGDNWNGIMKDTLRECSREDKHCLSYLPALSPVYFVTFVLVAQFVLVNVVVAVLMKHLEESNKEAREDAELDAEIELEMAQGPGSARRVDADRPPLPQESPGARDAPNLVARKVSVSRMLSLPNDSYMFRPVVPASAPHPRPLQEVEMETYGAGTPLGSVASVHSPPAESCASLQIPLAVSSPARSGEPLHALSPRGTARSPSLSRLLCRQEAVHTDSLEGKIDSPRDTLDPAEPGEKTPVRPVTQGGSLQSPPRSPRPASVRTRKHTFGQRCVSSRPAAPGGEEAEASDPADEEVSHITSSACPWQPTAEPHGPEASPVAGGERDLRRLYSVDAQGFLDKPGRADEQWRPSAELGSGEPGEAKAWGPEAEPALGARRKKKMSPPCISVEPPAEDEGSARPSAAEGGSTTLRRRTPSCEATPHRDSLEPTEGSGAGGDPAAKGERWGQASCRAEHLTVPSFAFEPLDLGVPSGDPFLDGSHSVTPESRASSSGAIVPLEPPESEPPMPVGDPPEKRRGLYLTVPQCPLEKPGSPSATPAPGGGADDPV

Compound: CC(C)CCc1nnc(NC(=O)COc2ccc(F)cc2Cl)o1
- EC50 [1]: 10 µM (active)

Compound: O=C(CCCN1C(=O)/C(=C/c2ccccc2)SC1=S)Nc1ccc(O)cc1
- AC50 [2]: 12 µM (active)
- IC50 [3]: > 32 µM (inactive)
- EC50 (Protein RecA): > 380 µM (inactive)
- CC50 (Vero): 60 µM (active)

Compound: CCOC(=O)N1C(=O)[C@@](c2ccc(Cl)cc2)(C(C)C)N1C(=O)OCC
- AC50 [2]: 7.28 µM (active)
- AC50 [4]: 22.4 µM (active)
- AC50 [5]: 40.9 µM (active)
- CC50 [6]: > 10 µM (inactive)
- AC50 [7]: 17.3 µM (active)
- AC50 [8]: 49.1 µM (active)
- CC50 [9]: > 10 µM (inactive)
- EC50 (Protein RecA): 16.2 µM (active)
- AC50 [10]: 26.6 µM (active)
- AC50 [11]: 3.99 µM (active)

Compound: CC(Sc1nc2cc(Cl)ccc2s1)C(=O)Nc1cccc(S(=O)(=O)N2CCOCC2)c1 (configuration not stated)
- EC50 [12]: 0.761 µM (active)
- IC50 (Cannabinoid receptor 1): > 32 µM (inactive)
- EC50 [13]: 0.961 µM (active)
- IC50 (Cannabinoid receptor 2 [14]): > 32 µM (inactive)
- EC50 (Cannabinoid receptor 2 [15]): > 32 µM (inactive)

Compound: COc1ccc(-c2cc(N)n(S(=O)(=O)c3ccc(F)cc3)n2)cc1OC
- IC50 (Tumor necrosis factor): > 20 µM (inactive)
- IC50 (Bcl-2-related protein A1 [16]): > 100 µM (not active)
- IC50 [17]: > 20 µM (inactive)
- IC50 (Bcl-2-related protein A1 [18]): > 100 µM (not active)
- IC50 [19]: > 100 µM (not active)
- IC50 [20]: > 20 µM (inactive)
- IC50 (HEK293): > 20 µM (inactive)
